Experimental data published in paper PMC11352961, “Peptide dendrimers transfecting CRISPR/Cas9 plasmid DNA: optimization and mechanism” (RSC Chemical Biology, 2024).
Bridge positions count the residues as written; N and C are the ends. Square brackets hold non-standard residues; d marks the D form. Side chains are listed from the residue outwards. Peptide text beside a SMILES is read from it. I, II: the chains in the order shown. * marks the point of attachment. Stearoyl = CCCCCCCCCCCCCCCCCC(=O)*; Palmitoyl = CCCCCCCCCCCCCCCC(=O)*

How the values were obtained:
[1] = in vitro; details: isolated enzyme proteinase k, pH 8
[2] = system: HEK293 cells; format: cell-based; details: 1 h
[3] = system: HeLa cells; experiment: Cell viability by PrestoBlue assay after transfection, HeLa cells; format: cell-based; details: 4 h
[4] = system: HEK293 cells; experiment: Cell viability by PrestoBlue assay after transfection, HEK cells; format: cell-based; details: 4 h

Compound	remaining at 1 h, 200 µM [1] [%]	remaining at 2 h, 200 µM [1] [%]	remaining at 3 h, 200 µM [1] [%]	remaining at 12 h, 200 µM [1] [%]	remaining at 24 h, 200 µM [1] [%]	transfection of HEK cells with protease inhibition [2] [%]	% viability HeLa cells [3] [%]	% viability HEK cells [4] [%]
CCCCCCCCCCCCCCCCCC(=O)NCCCC[C@@H](NC(=O)[C@@H](CCCCNC(=O)[C@@H](CC(C)C)NC(=O)[C@@H](CCCNC(=N)N)NC(=O)[C@@H](CCCCNC(=O)[C@@H](CC(C)C)NC(=O)[C@@H](CCCNC(=N)N)NC(=O)[C@@H](CCCCNC(=O)[C@@H](CC(C)C)NC(=O)[C@H](N)CCCNC(=N)N)NC(=O)[C@@H](CC(C)C)NC(=O)[C@H](N)CCCNC(=N)N)NC(=O)[C@@H](CC(C)C)NC(=O)[C@@H](CCCNC(=N)N)NC(=O)[C@@H](CCCCNC(=O)[C@@H](CC(C)C)NC(=O)[C@H](N)CCCNC(=N)N)NC(=O)[C@@H](CC(C)C)NC(=O)[C@H](N)CCCNC(=N)N)NC(=O)[C@@H](CC(C)C)NC(=O)[C@@H](CCCNC(=N)N)NC(=O)[C@@H](CCCCNC(=O)[C@@H](CC(C)C)NC(=O)[C@@H](CCCNC(=N)N)NC(=O)[C@@H](CCCCNC(=O)[C@@H](CC(C)C)NC(=O)[C@H](N)CCCNC(=N)N)NC(=O)[C@@H](CC(C)C)NC(=O)[C@H](N)CCCNC(=N)N)NC(=O)[C@@H](CC(C)C)NC(=O)[C@@H](CCCNC(=N)N)NC(=O)[C@@H](CCCCNC(=O)[C@@H](CC(C)C)NC(=O)[C@H](N)CCCNC(=N)N)NC(=O)[C@@H](CC(C)C)NC(=O)[C@H](N)CCCNC(=N)N)C(N)=O [Z34] (I: H-[dR][dL][dK]([dL-dR])[dR][dL][dK][dR][dL][dK][dK](Stearoyl)-NH2 / II: H-[dR][dL][dK]([dL-dR])[dR][dL][dK][dR][dL] / III: H-[dR][dL][dK]([dL-dR])[dR][dL] / IV: H-[dR][dL][dK]([dL-dR])[dR][dL]; amide I:6-IV:C, I:9-II:C, II:6-III:C)	100	97.7	95.4	91.8	101	69	94 ± 6	
CCCCCCCCCCCCCCCCCC(=O)NCCCC[C@H](NC(=O)[C@H](CCCCNC(=O)[C@H](CC(C)C)NC(=O)[C@H](CCCNC(=N)N)NC(=O)[C@H](CCCCNC(=O)[C@H](CC(C)C)NC(=O)[C@H](CCCNC(=N)N)NC(=O)[C@H](CCCCNC(=O)[C@H](CC(C)C)NC(=O)[C@@H](N)CCCNC(=N)N)NC(=O)[C@H](CC(C)C)NC(=O)[C@@H](N)CCCNC(=N)N)NC(=O)[C@H](CC(C)C)NC(=O)[C@H](CCCNC(=N)N)NC(=O)[C@H](CCCCNC(=O)[C@H](CC(C)C)NC(=O)[C@@H](N)CCCNC(=N)N)NC(=O)[C@H](CC(C)C)NC(=O)[C@@H](N)CCCNC(=N)N)NC(=O)[C@H](CC(C)C)NC(=O)[C@H](CCCNC(=N)N)NC(=O)[C@H](CCCCNC(=O)[C@H](CC(C)C)NC(=O)[C@H](CCCNC(=N)N)NC(=O)[C@H](CCCCNC(=O)[C@H](CC(C)C)NC(=O)[C@@H](N)CCCNC(=N)N)NC(=O)[C@H](CC(C)C)NC(=O)[C@@H](N)CCCNC(=N)N)NC(=O)[C@H](CC(C)C)NC(=O)[C@H](CCCNC(=N)N)NC(=O)[C@H](CCCCNC(=O)[C@H](CC(C)C)NC(=O)[C@@H](N)CCCNC(=N)N)NC(=O)[C@H](CC(C)C)NC(=O)[C@@H](N)CCCNC(=N)N)C(N)=O [Z23] (I: H-RLK([Leu-Arg])RLKRLKK(Stearoyl)-NH2 / II: H-RLK([Leu-Arg])RLKRL / III: H-RLK([Leu-Arg])RL / IV: H-RLK([Leu-Arg])RL; amide I:6-IV:C, I:9-II:C, II:6-III:C)	45	39.6	24.6	1.66	1.73	46	95 ± 5	83 ± 2
CCCCCCCCCCCCCCCCCC(=O)NCCCC[C@@H](NC(=O)[C@@H](CCCCNC(=O)[C@@H](CC(C)C)NC(=O)[C@@H](CCCCN)NC(=O)[C@@H](CCCCNC(=O)[C@@H](CC(C)C)NC(=O)[C@@H](CCCCN)NC(=O)[C@@H](CCCCNC(=O)[C@@H](CC(C)C)NC(=O)[C@H](N)CCCCN)NC(=O)[C@@H](CC(C)C)NC(=O)[C@H](N)CCCCN)NC(=O)[C@@H](CC(C)C)NC(=O)[C@@H](CCCCN)NC(=O)[C@@H](CCCCNC(=O)[C@@H](CC(C)C)NC(=O)[C@H](N)CCCCN)NC(=O)[C@@H](CC(C)C)NC(=O)[C@H](N)CCCCN)NC(=O)[C@@H](CC(C)C)NC(=O)[C@@H](CCCCN)NC(=O)[C@@H](CCCCNC(=O)[C@@H](CC(C)C)NC(=O)[C@@H](CCCCN)NC(=O)[C@@H](CCCCNC(=O)[C@@H](CC(C)C)NC(=O)[C@H](N)CCCCN)NC(=O)[C@@H](CC(C)C)NC(=O)[C@H](N)CCCCN)NC(=O)[C@@H](CC(C)C)NC(=O)[C@@H](CCCCN)NC(=O)[C@@H](CCCCNC(=O)[C@@H](CC(C)C)NC(=O)[C@H](N)CCCCN)NC(=O)[C@@H](CC(C)C)NC(=O)[C@H](N)CCCCN)C(N)=O [Z26] (I: H-[dK][dL][dK]([dL-dK])[dK][dL][dK][dK][dL][dK][dK](Stearoyl)-NH2 / II: H-[dK][dL][dK]([dL-dK])[dK][dL][dK][dK][dL] / III: H-[dK][dL][dK]([dL-dK])[dK][dL] / IV: H-[dK][dL][dK]([dL-dK])[dK][dL]; amide I:6-IV:C, I:9-II:C, II:6-III:C)						51	91 ± 5	91.3 ± 0.2
CCCCCCCCCCCCCCCC(=O)NCCCC[C@@H](NC(=O)[C@@H](CCCCNC(=O)[C@@H](CC(C)C)NC(=O)[C@@H](CCCCN)NC(=O)[C@@H](CCCCNC(=O)[C@@H](CC(C)C)NC(=O)[C@@H](CCCCN)NC(=O)[C@@H](CCCCNC(=O)[C@@H](CC(C)C)NC(=O)[C@H](N)CCCCN)NC(=O)[C@@H](CC(C)C)NC(=O)[C@H](N)CCCCN)NC(=O)[C@@H](CC(C)C)NC(=O)[C@@H](CCCCN)NC(=O)[C@@H](CCCCNC(=O)[C@@H](CC(C)C)NC(=O)[C@H](N)CCCCN)NC(=O)[C@@H](CC(C)C)NC(=O)[C@H](N)CCCCN)NC(=O)[C@@H](CC(C)C)NC(=O)[C@@H](CCCCN)NC(=O)[C@@H](CCCCNC(=O)[C@@H](CC(C)C)NC(=O)[C@@H](CCCCN)NC(=O)[C@@H](CCCCNC(=O)[C@@H](CC(C)C)NC(=O)[C@H](N)CCCCN)NC(=O)[C@@H](CC(C)C)NC(=O)[C@H](N)CCCCN)NC(=O)[C@@H](CC(C)C)NC(=O)[C@@H](CCCCN)NC(=O)[C@@H](CCCCNC(=O)[C@@H](CC(C)C)NC(=O)[C@H](N)CCCCN)NC(=O)[C@@H](CC(C)C)NC(=O)[C@H](N)CCCCN)C(N)=O [Z29] (I: H-[dK][dL][dK]([dL-dK])[dK][dL][dK][dK][dL][dK][dK](Palmitoyl)-NH2 / II: H-[dK][dL][dK]([dL-dK])[dK][dL][dK][dK][dL] / III: H-[dK][dL][dK]([dL-dK])[dK][dL] / IV: H-[dK][dL][dK]([dL-dK])[dK][dL]; amide I:6-IV:C, I:9-II:C, II:6-III:C)							95 ± 5	87 ± 1
CCCCCCCCCCCCCCCCCC(=O)NCCCC[C@H](NC(=O)[C@H](CCCCNC(=O)[C@H](CC(C)C)NC(=O)[C@H](CCCCN)NC(=O)[C@H](CCCCNC(=O)[C@H](CC(C)C)NC(=O)[C@H](CCCCN)NC(=O)[C@H](CCCCNC(=O)[C@H](CC(C)C)NC(=O)[C@@H](N)CCCCN)NC(=O)[C@H](CC(C)C)NC(=O)[C@@H](N)CCCCN)NC(=O)[C@H](CC(C)C)NC(=O)[C@H](CCCCN)NC(=O)[C@H](CCCCNC(=O)[C@H](CC(C)C)NC(=O)[C@@H](N)CCCCN)NC(=O)[C@H](CC(C)C)NC(=O)[C@@H](N)CCCCN)NC(=O)[C@H](CC(C)C)NC(=O)[C@H](CCCCN)NC(=O)[C@H](CCCCNC(=O)[C@H](CC(C)C)NC(=O)[C@H](CCCCN)NC(=O)[C@H](CCCCNC(=O)[C@H](CC(C)C)NC(=O)[C@@H](N)CCCCN)NC(=O)[C@H](CC(C)C)NC(=O)[C@@H](N)CCCCN)NC(=O)[C@H](CC(C)C)NC(=O)[C@H](CCCCN)NC(=O)[C@H](CCCCNC(=O)[C@H](CC(C)C)NC(=O)[C@@H](N)CCCCN)NC(=O)[C@H](CC(C)C)NC(=O)[C@@H](N)CCCCN)C(N)=O [Z1] (I: H-KLK([Leu-Lys])KLKKLKK(Stearoyl)-NH2 / II: H-KLK([Leu-Lys])KLKKL / III: H-KLK([Leu-Lys])KL / IV: H-KLK([Leu-Lys])KL; amide I:6-IV:C, I:9-II:C, II:6-III:C)						42	51 ± 6	64 ± 7
CCCCCCCCCCCCCCCC(=O)NCCCC[C@@H](NC(=O)[C@@H](CCCCNC(=O)[C@@H](CC(C)C)NC(=O)[C@@H](CCCNC(=N)N)NC(=O)[C@@H](CCCCNC(=O)[C@@H](CC(C)C)NC(=O)[C@@H](CCCNC(=N)N)NC(=O)[C@@H](CCCCNC(=O)[C@@H](CC(C)C)NC(=O)[C@H](N)CCCNC(=N)N)NC(=O)[C@@H](CC(C)C)NC(=O)[C@H](N)CCCNC(=N)N)NC(=O)[C@@H](CC(C)C)NC(=O)[C@@H](CCCNC(=N)N)NC(=O)[C@@H](CCCCNC(=O)[C@@H](CC(C)C)NC(=O)[C@H](N)CCCNC(=N)N)NC(=O)[C@@H](CC(C)C)NC(=O)[C@H](N)CCCNC(=N)N)NC(=O)[C@@H](CC(C)C)NC(=O)[C@@H](CCCNC(=N)N)NC(=O)[C@@H](CCCCNC(=O)[C@@H](CC(C)C)NC(=O)[C@@H](CCCNC(=N)N)NC(=O)[C@@H](CCCCNC(=O)[C@@H](CC(C)C)NC(=O)[C@H](N)CCCNC(=N)N)NC(=O)[C@@H](CC(C)C)NC(=O)[C@H](N)CCCNC(=N)N)NC(=O)[C@@H](CC(C)C)NC(=O)[C@@H](CCCNC(=N)N)NC(=O)[C@@H](CCCCNC(=O)[C@@H](CC(C)C)NC(=O)[C@H](N)CCCNC(=N)N)NC(=O)[C@@H](CC(C)C)NC(=O)[C@H](N)CCCNC(=N)N)C(N)=O [Z33] (I: H-[dR][dL][dK]([dL-dR])[dR][dL][dK][dR][dL][dK][dK](Palmitoyl)-NH2 / II: H-[dR][dL][dK]([dL-dR])[dR][dL][dK][dR][dL] / III: H-[dR][dL][dK]([dL-dR])[dR][dL] / IV: H-[dR][dL][dK]([dL-dR])[dR][dL]; amide I:6-IV:C, I:9-II:C, II:6-III:C)							93 ± 6	84 ± 1
